Reference: patent US5541178A, “Carbapenem antibiotic compounds” (Zeneca Limited, priority 1991, dated 1996)
Values after ≈ are worked out from the molar mass of the structure shown. Structures can show the parent of a compound that is named as a salt. Where two headings read alike, the source gives them in different places.

Key:
Type in all cases: cell-based
P. morganii I + 001 = assay: MIC by agar-dilution technique, Diagnostic Sensitivity Test; conditions: Morganella morganii
From the text: (§1) The pharmaceutically acceptable carbapenem compounds of the present invention are useful antibacterial agents having a broad spectrum of activity in vitro against standard laboratory microorganisms, both Gram-negative and Gram-positive, which are used to screen for activity against pathogenic bacteria. The antibacterial spectrum and potency of a particular compound may be determined in a standard test system. In particular the carbapenems of the present invention show good stability to beta-lactamases and in general particularly good pharmacokinetics, especially as regards half life. In general compounds show significant improvement over imipenem.
(§2) The following results were obtained for representative compounds on a standard in vitro test system using Diagnostic Sensitivity Test. The antibacterial activity is described in terms of the minimum inhibitory concentration (MIC) determined by the agar-dilution technique with an inoculum size of 10^4 CFU/spot.

E. coli DCO = assay: as above; conditions: Escherichia coli, inoculum 10^4 CFU/spot
From the text: as §1, §2

B. fragilis AMP-R = assay: as above; conditions: Bacteroides fragilis, inoculum 10^4 CFU/spot
From the text: as §1, §2

[1] = tested on: Enterobacter cloacae P99+; assay: as above
From the text: as §1, §2

S. aureus Oxford = assay: as above; conditions: Staphylococcus aureus, inoculum 10^4 CFU/spot
From the text: as §1, §2

B. fragilis AMP-S = assay: as above; conditions: Bacteroides fragilis, inoculum 10^4 CFU/spot
From the text: as §1, §2

D Morganii DR 062 = assay: as above
From the text: as §1, §2

[2] = tested on: Enterobacter cloacae P99-; assay: microbe, parasite or virus in culture
From the text: as §1, §2

[3] = P. morganii I + 001, agar-dilution, inoculum 10^4 CFU/spot, read-out: MIC
[4] = D Morganii DR 062, agar-dilution, inoculum 10^4 CFU/spot, read-out: MIC

SMILES	MIC (P. morganii I + 001) [mg/L]	MIC (E. coli DCO) [mg/L]	MIC (B. fragilis AMP-R) [mg/L]	MIC [1] [mg/L]	MIC (S. aureus Oxford) [mg/L]	MIC (B. fragilis AMP-S) [mg/L]	MIC (D Morganii DR 062) [mg/L]	MIC [2] [mg/L]	MIC (P. morganii I + 001; [3]) [mg/L]	MIC (D Morganii DR 062; [4]) [mg/L]
C[C@@H](O)[C@H]1C(=O)N2C(C(=O)O)=C(S[C@@H]3CN[C@H](C(=O)Nc4ccccc4C(=O)O)C3)[C@H](C)[C@H]12 [Example 5, (1R,5S,6S,8R,2'S,4'S)-2-(2-(2-Carboxyphenylcarbamoyl)pyrrolidin-4-ylthio)-6-(1-hydroxyethyl)-1-methylcarbapenem-3-carboxylic acid]	0.03 (≈ 0.0631 µM)	0.03 (≈ 0.0631 µM)	0.25 (≈ 0.526 µM)	1 (≈ 2.1 µM)	0.06 (≈ 0.126 µM)	0.25 (≈ 0.526 µM)	0.03 (≈ 0.0631 µM)	0.06 (≈ 0.126 µM)		
C[C@@H](O)[C@H]1C(=O)N2C(C(=O)O)=C(S[C@@H]3CN[C@H](C(=O)Nc4cc(C(=O)O)ccc4O)C3)[C@H](C)[C@H]12 [Example 2, (1R,5S,6S,8R,2'S,4'S)-2-(2-(5-Carboxy-2-hydroxyphenylcarbamoyl)pyrrolidin-4-ylthio)-6-(1-hydroxyethyl)-1-methylcarbapenem-3-carboxylic acid]		0.03 (≈ 0.061 µM)		1 (≈ 2.03 µM)	0.13 (≈ 0.264 µM)	0.25 (≈ 0.509 µM)		0.01 (≈ 0.0203 µM)	0.06	0.06 (≈ 0.122 µM)
C[C@@H](O)[C@H]1C(=O)N2C(C(=O)O)=C(S[C@@H]3CN[C@H](C(=O)Nc4ccc(C(=O)O)cc4O)C3)[C@H](C)[C@H]12 [Example 1, (1R,5S,6S,8R,2'S,4'S)-2-(2-(4-Carboxy-2-hydroxyphenylcarbamoyl)pyrrolidin-4-ylthio)-6-(1-hydroxyethyl)-1-methylcarbapenem-3-carboxylic acid]		0.01 (≈ 0.0203 µM)	0.5 (≈ 1.02 µM)	0.25 (≈ 0.509 µM)	0.13 (≈ 0.264 µM)	0.25 (≈ 0.509 µM)		0.01 (≈ 0.0203 µM)	0.02	0.02 (≈ 0.0407 µM)
C[C@@H](O)[C@H]1C(=O)N2C(C(=O)O)=C(S[C@@H]3CN[C@H](C(=O)Nc4ccc(C(=O)O)cc4C(=O)O)C3)[C@H](C)[C@H]12 [Example 13, (1R,5S,6S,8R,2'S,4'S)-2-(2-(2,4-Dicarboxyphenylcarbamoyl)pyrrolidin-4-ylthio)-6-(1-hydroxyethyl)-1-methylcarbapenem-3-carboxylic acid]		0.02 (≈ 0.0385 µM)	0.5 (≈ 0.962 µM)	2 (≈ 3.85 µM)	0.25 (≈ 0.481 µM)	0.13 (≈ 0.25 µM)		0.03 (≈ 0.0577 µM)	0.01	0.02 (≈ 0.0385 µM)
C[C@@H](O)[C@H]1C(=O)N2C(C(=O)O)=C(S[C@@H]3CN[C@H](C(=O)Nc4cccc(C(=O)O)c4C(=O)O)C3)[C@H](C)[C@H]12 [Example 4, (1R,5S,6S,8R,2'S,4'S)-2-(2-(2,3-Dicarboxyphenylcarbamoyl)pyrrolidin-4-ylthio)-6-(1-hydroxyethyl)-1-methylcarbapenem-3-carboxylic acid]	0.03 (≈ 0.0577 µM)	0.02 (≈ 0.0385 µM)	0.5 (≈ 0.962 µM)	1 (≈ 1.92 µM)	0.25 (≈ 0.481 µM)	0.13 (≈ 0.25 µM)	0.03 (≈ 0.0577 µM)	0.01 (≈ 0.0192 µM)		
COc1ccc(NC(=O)[C@@H]2C[C@H](SC3=C(C(=O)O)N4C(=O)[C@H]([C@@H](C)O)[C@H]4[C@H]3C)CN2)c(C(=O)O)c1 [Example 31, (1R,5S,6S,8R,2'S,4'S)-2-(2-(2-Carboxy-4-methoxyphenylcarbamoylpyrrolidin-4-ylthiol)-6-(1-hydroxyethyl)-1-methylcarbapenem-3-carboxylic acid, dipotassium salt]	0.03	0.02	0.25	1	0.13	0.25		0.03		0.06
CO/N=C(\C(=O)N[C@@H]1C(=O)N2C(C(=O)O)=C(CSc3nc(=O)c(=O)[nH]n3C)CS[C@H]12)c1csc(N)n1 [ceftriaxone, reference compound]		0.03 (≈ 0.0541 µM)	> 128	32 (≈ 57.7 µM)	2 (≈ 3.61 µM)	2 (≈ 3.61 µM)		0.06 (≈ 0.108 µM)	0.01	1 (≈ 1.8 µM)
